# Assay results from patent US20260248763A1 (BIO GENUINE (SHANGHAI) BIOTECH CO., LTD, priority 2023, published 2026).
# Biological target: T1, OTR (Homo sapiens, UniProt P30559)
# T1 construct: expressed in transfected cells; host or cells: OTR/HEK293 stably transfected cell line
# T1 sequence (P30559 1-389): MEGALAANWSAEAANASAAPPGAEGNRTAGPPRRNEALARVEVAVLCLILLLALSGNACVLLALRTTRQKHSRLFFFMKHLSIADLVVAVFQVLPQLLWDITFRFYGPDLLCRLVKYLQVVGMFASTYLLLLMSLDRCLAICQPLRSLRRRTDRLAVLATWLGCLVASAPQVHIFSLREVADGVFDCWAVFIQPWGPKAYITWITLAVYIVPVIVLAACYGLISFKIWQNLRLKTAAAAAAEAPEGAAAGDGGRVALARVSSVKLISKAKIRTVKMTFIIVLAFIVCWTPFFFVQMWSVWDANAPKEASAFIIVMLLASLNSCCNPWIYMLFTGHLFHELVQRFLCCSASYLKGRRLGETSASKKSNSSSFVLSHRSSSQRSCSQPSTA
# Assay: Ca2+ mobilization in cells stably expressing OTR (FLIPR, antagonist mode)
# Assay type: cell-based
# Settings: OTR/HEK293 stably transfected cell line
# From the text: Test Example 1. Determination of the Effect of the Compound of the Present Disclosure on Ca^2+ Mobilization in Cells Stably Expressing OTR
# To measure the antagonistic effect of the compound of the present disclosure on OTR activity expressed in the OTR/HEK293 stably transfected cell line.
# • DMEM medium (Invitrogen, 11965) • F12 medium (Invitrogen, 11765) • Fetal bovine serum (Excell, FSP500) • Geneticin (Invitrogen, 10131) • Penicillin/Streptomycin (Invitrogen, SV30010) • Fluo-4 Direct kit (Invitrogen, F10471) • 384-well cell plate (Greiner, 781090) • 384-well compound plate (Greiner, 781280)
# • FLIPR instrument (Molecular Device) • EHCO instrument (Labcyte) • Cell counter (Beckman, Vi-cell XR)
# The cultured cells were washed twice with pre-heated DPBS and digested with appropriate amount of trypsin at 37° C. for 1 minute, and then appropriate amount of culture medium was added to terminate digestion. The cells were centrifuged at 1000 rpm for 5 minutes. The supernatant was gently discarded without disturbing the cell pellet at the bottom. The cells were resuspended in culture medium and 1 mL was taken out for cell counting and viability assessment using Vi-CELL™. The cells were diluted to 1×10^6 cells/mL (20,000 cells/20 μL) with culture medium, seeded into a 384-well cell plate and incubated at 37° C. with 5% CO2 for 16-20 h.
# Formulation of 250 mM Probenecid solution: according to the kit instructions, 1 mL of FLIPR buffer salt solution was added to 77 mg of probenecid, prepared fresh just before use. Formulation of Fluo-4 Direct™ (2×, 8 μM) loading buffer: according to the kit instructions, the required amount of Fluo-4 Direct™ was taken out and thawed in advance, 10 mL of FLIPR buffer salt solution and 0.2 mL of 250 mM Probenecid solution were added to each tube, and the mixture was vortexed in the dark for >5 minutes, prepared fresh just before use.
# Preparation of agonist reference compound plate: the agonist was diluted 3-fold in 10 points using ECHO, and 750 nL was transferred to the corresponding compound plate using ECHO.
# Preparation of reference and test compound plates: the test compound was diluted 3-fold in 10 points with ECHO, and 900 nL was transferred to the corresponding compound plate; the reference compound was diluted 3-fold in 10 points with assay buffer salt solution, and 30 μL was transferred to the compound plate.
# 30 μL of assay buffer salt solution was added to the corresponding compound plate, and the mixture was centrifuged at 1000 rpm for 1 minute.
# The cell plate prepared the day before was taken out of the incubator, and 20 μL of 2×Fluo-4 Direct™ buffer was added to each well, with a total volume of 40 μL.
# The plate was incubated in an incubator at 37° C. with 5% CO2 for 50 minutes, and then placed at room temperature for 10 minutes.
# The compound plate, cell plate, and pipette tips were placed into the instrument.
# For the agonist reference compound plate: the FLIPR instrument software was run, 10 μL of the pre-determined concentration of agonist reference compound was added to the cell plate following the preset protocol, and the fluorescence signal was read. After reading, the data were exported to calculate the EC80 for each cell line, and the agonist at 6×EC80 concentration was prepared.
# For the compound plate: the FLIPR instrument software was run, 10 μL of the pre-determined concentration of test compound and the reference compound were added to the cell plate following the preset protocol, and the fluorescence signal was read. 10 μL of the reference compound agonist at 6×EC80 concentration was added to the cell plate, and the fluorescence signal was read. For antagonist detection of the compound, the data were exported using the “Max-Min” and “Read 1 to Maximum allowed” methods in the software, and the data were fitted using Prism.
row,IC50 [nM],Compound
1,43.9,"CO/N=C1/C[C@@H](CO)N(C(=O)c2ccc(-c3cccc(C#N)c3C)c(OCC3CC3)n2)C1 [Example A0188, (S, Z)-3-(2-(Cyclopropylmethoxy)-6-(2-(hydroxymethyl)-4-(methoxyimino)pyrrolidine-1-carbonyl)pyridin-3-yl)-2-methylbenzonitrile]"
2,1510,"CO/N=C1/C[C@@H](CO)N(C(=O)c2ccc(-c3cccc(C#N)c3C)c3ncnn23)C1 [Example A0190, (S, Z)-3-(5-(2-(Hydroxymethyl)-4-(methoxyimino)pyrrolidine-1-carbonyl)-[1,2,4]triazolo[1,5-a]pyridin-8-yl)-2-methylbenzonitrile]"
3,403,"COCCNc1nc(C(=O)N2C/C(=N\OC)C[C@H]2CO)ccc1-c1cccc(C#N)c1C [Example A0197, (S, Z)-3-(6-(2-(Hydroxymethyl)-4-(methoxyimino)pyrrolidine-1-carbonyl)-2-((2-methoxyethyl)amino)pyridin-3-yl)-2-methylbenzonitrile]"
4,967,"CO/N=C1/C[C@@H](CO)N(C(=O)c2ccc(-c3cccc(C#N)c3C)c(N3CCOCC3)n2)C1 [Example A0198, (S, Z)-3-(6-(2-(Hydroxymethyl)-4-(methoxyimino)pyrrolidine-1-carbonyl)-2-morpholinopyridin-3-yl)-2-methylbenzonitrile]"
5,156,"CO/N=C1/C[C@@H](CO)N(C(=O)c2ccc(-c3cccc(C#N)c3C(F)F)cc2)C1 [Example A0204, 2-(Difluoromethyl)-3-(4-[(2S, 4Z)-2-(hydroxymethyl)-4-(methoxyimino)pyrrolidine-1-carbonyl]phenyl)benzonitrile]"
6,384,"CO/N=C1/C[C@@H](CO)N(C(=O)c2ccc(-c3cccc(C#N)c3C)s2)C1 [Example A0212, 3-(5-[(2S, 4Z)-2-(Hydroxymethyl)-4-(methoxyimino)pyrrolidine-1-carbonyl]thien-2-yl)-2-methylbenzonitrile]"
7,198,"CO/N=C1/C[C@@H](CO)N(C(=O)c2cc(OC)c(-c3cccc(C#N)c3C)cn2)C1 [Example A0216, 3-(6-[(2S, 4Z)-2-(Hydroxymethyl)-4-(methoxyimino)pyrrolidine-1-carbonyl]-4-methoxypyridin-3-yl)-2-methylbenzonitrile]"
8,112,"CO/N=C1\C[C@@H](CO)N(C(=O)c2ccc(-c3cccc(C#N)c3C)c(OC)n2)C1 [Example A0222, 3-(6-[(2S, 4E)-2-(Hydroxymethyl)-4-(methoxyimino)pyrrolidine-1-carbonyl]-2-methoxypyridin-3-yl)-2-methylbenzonitrile]"
9,483,"CO/N=C1/CC[C@@H](CO)N(C(=O)c2ccc(-c3cccc(C#N)c3C)cc2)C1 [Example A0225, (S, Z)-4′-(2-(Hydroxymethyl)-5-(methoxyimino)piperidine-1-carbonyl)-2-methyl-[1,1′-biphenyl]-3-carbonitrile]"
10,1050,"CO/N=C1\CCN(C(=O)c2ccc(-c3cccc(C#N)c3C)cc2)[C@H](CO)C1 [Example A0226, (S,E)-4′-(2-(Hydroxymethyl)-4-(methoxyimino)piperidine-1-carbonyl)-2-methyl-[1,1′-biphenyl]-3-carbonitrile]"
11,432,"CNC(=O)[C@@H]1C/C(=N/OC)CN1C(=O)c1ccc(-c2cccc(C#N)c2C)cc1 [Example A0228, (S, Z)-1-(3′-Cyano-2′-methyl-[1,1′-biphenyl]-4-carbonyl)-4-(methoxyimino)-N-methylpyrrolidine-2-carboxamide]"
12,394,"CNC(=O)[C@@H]1C/C(=N\OC)CN1C(=O)c1ccc(-c2cccc(C#N)c2C)cc1 [Example A0232, (S, E)-1-(3′-Cyano-2′-methyl-[1,1′-biphenyl]-4-carbonyl)-4-(methoxyimino)-N-methylpyrrolidine-2-carboxamide]"
13,242,"CO/N=C1\CC[C@@H](CO)N(C(=O)c2ccc(-c3cccc(C#N)c3C)cc2)C1 [Example A0234, (S, E)-4′-(2-(Hydroxymethyl)-5-(methoxyimino)piperidine-1-carbonyl)-2-methyl-[1,1′-biphenyl]-3-carbonitrile]"
